# Columns and labels:
# B16 melanoma = assay: Lung metastasis of B16 melanoma (macroscopic lung colonies); assay type: in vivo, mouse; conditions: treatments from day 11, daily, counted 21 days after starting the treatments, 7 animals, parentheses = smallest and highest numbers in the group
# Protocol: B16 melanoma cells are highly metastatic that are known to preferably form metastatic colonies in the lung. The goal of this experiment was to determine if any of the components present in commercial PALP or the mode of application affect the metastatic process.
# The B16 melanoma model described under Example 3 was used. The treatments of mice bearing the rapidly growing B16 melanoma were started 11 days after tumor transplantation; additional treatments were performed on each day for six consecutive days. In each experimental group seven animals were used. In the first group, animal tumors were treated locally with 200 mg Vaseline (control group). In the second group, animal tumors were locally treated with 200 mg Vaseline cream containing 4 mg commercial PALP per 1-g Vaseline. In the third group, animals were subcutaneously injected commercial PALP (1.5 mg per animal or 60 mg per kg). In the fourth group, animals were treated with commercial PALP both locally and subcutaneously. In the fifth group, animals were subcutaneously injected highly purified PALP (0.35 mg per animal or 14 mg per 1 kg). In the sixth group, animals were subcutaneously injected partially iron-saturated human TF (0.4 mg per animal or 16 mg per 1 kg). In the seventh group, animal tumors were locally treated with 200 mg Vaseline cream containing 1.0 mg human TF per 1 g Vaseline. In the last group, the tumors were untreated during the entire period of experiment. The macroscopic colonies were counted in the lung (7 animals in each group) 21 days after starting the treatments. The data are presented in TABLE 5; numbers in the parentheses indicate the smallest and highest numbers of metastatic lung colonies in the same group.
# B16 mouse melanoma [1] = assay: B16 mouse melanoma tumor growth (tumor volume by calipers); assay type: in vivo; conditions: for Tumor volumes; Day 8 after tumor transplantation: local cream 150 mg per application on days 8, 11, 13, 15, 18, 20, day 8 = start, mean of 5 animals
# Description: The B16 mouse melanoma tumors were developed in first generation hybrid BDF1 (C57 B1 female×DBA/2 male) adult female mice kept at specified pathogen free (SPF) hygienic level. These mice have the complete immune system. The human H-168 melanoma tumors were developed in the homozygous line of C.B.-171 cr scid/scid mice (with severely compromised immune deficiency) which is an inbred mutant strain. In each case, tumor tissue fragments of about 0.1-cm^3 were surgically implanted subcutaneously into the intrascapular region to develop the tumors. Each tumor fragment contained 1-1.5×10^6 cells. The animals were kept in macrolon cages on ventilated rack at 22-24° C. (50-60% humidity) with lighting regimen of 12/12 h light/dark. The animals had free access to tap water and were fed with sterilized standard diet (Charles River VRF1, Germany) ad libitum. The animals were taken care of according to the “Guiding Principle for the care and use of Animals” based upon the Helsinki declaration and they were approved by the local ethical committee.
# The mice bearing the rapidly growing B16 melanoma tumors were used after 8-11 days of tumor transplantation, while mice bearing the slower growing H-168 melanoma were used after 17 days of transplantation. In either case, when the tumor-bearing mice were used, the size of the tumors was in the 0.3-0.6 cm^3 range; animals were selected so that in the same treatment group the difference in tumor size was no greater than 0.1 cm^3 PALP, TF, or AT were used topically in a cream alone or in combination; in each case, 150-mg cream was applied on the tumor and the vicinity of tumor area (with about 0.3-0.5 cm margin). The tumor volume was determined by using calipers; this technique is well known to one having ordinary skill in the art. Tumor volume was calculated according to the generally accepted formula: V=a^2×b×π/6, where “a” and “b” mean the shortest and longest diameter, respectively, of the measured tumor.
# The aggressive B16 mouse melanoma model was developed as described under Example 3. On day 11 after transplantation of tumor cells, the animals were either remained untreated (Group 1) or were treated with 15 mg/kg highly purified PALP via subcutaneous administration (Group 2). In Group 3, the tumors were treated locally with 150-mg of cream containing 4 mg commercial PALP in 1 g of Vaselinum cholesteratum. In Group 4, the animals were treated simultaneously locally with commercial PALP containing cream and via subcutaneous injection with highly purified PALP. Each treatment was performed once daily for seven consecutive days (i.e., treatments were terminated on day 18). Locally administered PALP preparation, and to a somewhat smaller extent injected purified PALP, inhibited the growth of B16 melanoma. The inhibitory effects remained significant even on day 23, 5 days after the last treatment. When PALP preparations were simultaneously administered via both routes, the combined effects were greater than the individual effects. […] Alternatively, optimal effects could require the presence of all 3 proteins. Experiments presented later confirm that the inhibitory effects of purified PALP on melanoma growth are greater in the simultaneous presence of TF and AT.
# The B16 mouse melanoma model was developed as described under Example 3. On day 8 after transplantation of tumor cells, the animals either remained untreated (Group 1) or in other animal groups the tumors were treated locally with creams (150 mg per application) containing active components as follows: Group 2, 0.4 mg of purified PALP per 1-g Vaseline; Group 3, 0.5 mg of purified partially iron-saturated TF per 1-g Vaseline; Group 4, 0.4 mg of PALP+0.5 mg TF per 1-g Vaseline; Group 5, 1.2 mg of purified AT per 1-g Vaseline; Group 6, 0.4 mg of PALP+0.5 mg TF+1.2 mg of purified AT per 1-g Vaseline; and Group 7, Vaselinum cholesteratum alone. Each treatment was performed once daily on days 8, 11, 13, 15, 18 and 20. […]
# fibroblast = assay: Fibroblast proliferation in vitro after pre-heating of TF; assay type: cell-based; conditions: pre-heating at up to 75° C. for 30 min
# Protocol: The stimulatory effects of TF on fibroblast proliferation in vitro are not altered by pre-heating it at up to 75° C. for 30 min. Thus, pre-heating of TF-containing compositions to enhance the effects of other components, such as PALP and AT will be unlikely to alter other effects of TF such as inhibition of melanoma growth.
# B16 mouse melanoma [2] = assay: B16 mouse melanoma tumor growth (tumor volume by calipers); assay type: in vivo; conditions: subcutaneous injection
# [3] = Organ pathology in mice after repeated injection; assay type: in vivo; conditions: 16 mg/kg injected 15-times over a 3 weeks period
# [4] = BDF1 mice, 5 days after the last treatment, mean of 7 animals
# [5] = BDF1 mice, day 11 = start of treatment, once daily for seven consecutive days, mean of 7 animals
# [6] = BDF1 mice, treated once daily from day 11 for seven days, mean of 7 animals
# [7] = BDF1 mice, treated once daily from day 11 for seven days, treatments terminated on day 18, mean of 7 animals
# [8] = BDF1 mice, treatments terminated on day 18, mean of 7 animals
# [9] = local cream 150 mg per application on days 8, 11, 13, 15, 18, 20, mean of 5 animals
# [10] = subcutaneous injection, CCDTHT 4.6 mg/kg once daily day 11-22, mean of 5 mice
Molecule,Number of lung colonies per lung* (B16 melanoma),Tumor volumes; Day 23 after tumor transplantation (B16 mouse melanoma [1]; [4]) [cm^3],Tumor volumes; Day 11 after tumor transplantation (B16 mouse melanoma [1]; [5]) [cm^3],Tumor volumes; Day 14 after tumor transplantation (B16 mouse melanoma [1]; [6]) [cm^3],Tumor volumes; Day 16 after tumor transplantation (B16 mouse melanoma [1]; [6]) [cm^3],Tumor volumes; Day 18 after tumor transplantation (B16 mouse melanoma [1]; [7]) [cm^3],Tumor volumes; Day 21 after tumor transplantation (B16 mouse melanoma [1]; [8]) [cm^3],Tumor volumes; Day 8 after tumor transplantation (B16 mouse melanoma [1]) [cm^3],Tumor volumes; Day 11 after tumor transplantation (B16 mouse melanoma [1]; [9]) [cm^3],Tumor volumes; Day 13 after tumor transplantation (B16 mouse melanoma [1]; [9]) [cm^3],Tumor volumes; Day 15 after tumor transplantation (B16 mouse melanoma [1]; [9]) [cm^3],Tumor volumes; Day 18 after tumor transplantation (B16 mouse melanoma [1]; [9]) [cm^3],Tumor volumes; Day 20 after tumor transplantation (B16 mouse melanoma [1]; [9]) [cm^3],other results
"TF: human transferrin, partially iron-saturated, Sigma-Aldrich T 3309",doubling,3.88,0.71,1.00,1.13,2.00,3.12,0.34,0.79,1.38,2.19,3.07,3.83,"Number of lung colonies per lung* (B16 melanoma; listed as TF, local applications): 17 (10-21); Number of lung colonies per lung* (B16 melanoma; listed as TF, subcutaneous applications): 38 (29-44); Stimulatory effects on fibroblast proliferation in vitro after pre-heating (fibroblast): not altered"
"CC[N+](C)(CC)CCOCc1ccc2sc3ccccc3c(=O)c2c1.[I-] [CCDTHT, N,N-diethyl-N-methyl-2-[(9-oxo-9H-thioxanthen-2-yl)methoxy]-ethanaminium iodide]",–,–,–,–,–,–,–,–,–,–,–,–,–,"Tumor volumes; Day 14 after tumor transplantation (B16 mouse melanoma [1]; [10]): 1.20 cm^3; Tumor volumes; Day 16 after tumor transplantation (B16 mouse melanoma [1]; [10]): 1.40 cm^3; Tumor volumes; Day 18 after tumor transplantation (B16 mouse melanoma [1]; [10]): 1.90 cm^3; Tumor volumes; Day 23 after tumor transplantation (B16 mouse melanoma [1]; [10]): 3.00 cm^3; Tumor volumes; Day 11 after tumor transplantation (B16 mouse melanoma [2]; CCDTHT 4.6 mg/kg once daily day 11-22, day 11 = start, mean of 5 mice): 0.83 cm^3; Tumor volumes; Day 21 after tumor transplantation (B16 mouse melanoma [2]; CCDTHT 4.6 mg/kg once daily day 11-22, mean of 5 mice): 2.60 cm^3"
"AT: human α1-antitrypsin, essentially pure, purified from commercial PALP preparation",–,–,–,–,–,–,–,0.42,0.83,1.60,2.55,3.48,4.80,–
"Purified PALP: human placental alkaline phosphatase purified to homogeneity from commercial Sigma-Aldrich PALP; it is 'PALP' in Table 2, b31 and b104 (protein, UniProt P05187 23-506, looked up) Alkaline phosphatase, …: IIPVEEENPDFWNREAAEALGAAKKLQPAQTAAKNLIIFLGDGMGVSTVTAARILKGQKKDKLGPEIPLAMDRFPYVALSKTYNVDKHVPDSGATATAYLCGVKGNFQTIGLSAAARFNQCNTTRGNEVISVMNRAKKAGKSVGVVTTTRVQHASPAGTYAHTVNRNWYSDADVPASARQEGCQDIATQLISNMDIDVILGGGRKYMFRMGTPDPEYPDDYSQGGTRLDGKNLVQEWLAKRQGARYVWNRTELMQASLDPSVTHLMGLFEPGDMKYEIHRDSTLDPSLMEMTEAALRLLSRNPRGFFLFVEGGRIDHGHHESRAYRALTETIMFDDAIERAGQLTSEEDTLSLVTADHSHVFSFGGYPLRGSSIFGLAPGKARDRKAYTVLLYGNGPGYVLKDGARPDVTESESGSPEYRQQSAVPLDEETHAGEDVAVFARGPQAHLVHGVQEQTFIAHVMAFAACLEPYTACDLAPPAGTTD",16 (9-18),3.63,0.75,1.16,1.55,2.13,3.47,–,–,–,–,–,–,"Pathological effects (cell death or immune cell infiltration) in liver, lung, heart, blood, kidney, muscle, brain, spleen, intestine [3]: has not caused any significant pathological effects"
